The source of these data is patent US20140148484A1, “PYRAZOLE COMPOUNDS FOR TREATING HAIRLOSS” (Boehringer Ingelheim International GmbH, priority 2012, published 2014).

Structures are written as SMILES. pKi: −log10 of the molar value.

One assay has as its target T1, human CRTH2 receptor (Homo sapiens, UniProt Q9Y5Y4).
T1 construct: host or cells: CHO-K1 (CHO-K1-hCRTH2 cells); membranes prepared in house from the purchased cell line
T1 sequence (Q9Y5Y4 1-395): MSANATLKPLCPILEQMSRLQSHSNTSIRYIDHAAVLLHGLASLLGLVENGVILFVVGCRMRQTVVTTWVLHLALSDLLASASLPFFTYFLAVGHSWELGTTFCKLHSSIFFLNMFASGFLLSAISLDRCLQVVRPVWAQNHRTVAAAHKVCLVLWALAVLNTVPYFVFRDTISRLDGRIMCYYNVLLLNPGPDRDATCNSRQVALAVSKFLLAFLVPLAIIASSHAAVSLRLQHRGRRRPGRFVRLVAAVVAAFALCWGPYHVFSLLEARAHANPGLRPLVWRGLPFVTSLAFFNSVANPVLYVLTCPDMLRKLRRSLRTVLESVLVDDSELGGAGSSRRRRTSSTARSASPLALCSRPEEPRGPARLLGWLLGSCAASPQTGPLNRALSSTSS
Description: Human CRTH2 receptor membrane radioligand binding assay (SPA, [3H]-PGD2). As to conditions: displacement of [3H]-PGD2 (1 nM) from CHO-K1-hCRTH2 cell membranes, 3 h room temperature. An outline of the steps: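 SPA binding using membranes from CHO-K1 cells expressing human CRTH2 (0.5–10 μg protein/well) with 1 nM [3H]-PGD2 in Tris pH 7.4 buffer with 0.1% BSA, 3 h at room temperature. Non-specific binding defined with 1 μM PGD2 or 10 μM CAY10471; inhibition calculated from specific binding.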
Background: Displacement assays read how much labelled ligand stays bound in the presence of the test substance.

Assay [1] relates to explanted human hair follicles. Conditions: administration to explanted human hair follicles; cited from earlier work.
The test system of another assay is hair growth in mice. Conditions: applied topically to the skin of wild-type mice; cited from earlier work.

On to `Cc1nn(Cc2ccc(C(=O)Nc3cc(Cl)cc(Cl)c3)cc2)c(C)c1CC(=O)O` [Example 9.8], for which the negative-log Ki (pKi) at human CRTH2 receptor is 7.51.

With `Cc1ccc(Br)c(C(=O)Nc2ccc(Cn3nc(C)c(CC(=O)O)c3C)cc2)c1` [Example 1.31], the pKi at human CRTH2 receptor is 7.72. Against the preceding molecule, the pKi is 0.21 log units higher.

Consider `Cc1nn(Cc2ccc(C(C)Oc3ccccc3)cc2)c(C)c1CC(=O)O` (stereo not shown) [Example 14.6], for which, at human CRTH2 receptor, the negative logarithm of the Ki (pKi) was 6.37.

In the case of `Cc1nn(Cc2ccc(NC(=O)c3ccc(Cl)cc3Cl)cc2)c(C)c1CC(=O)O` [Example 1.18], the pKi on human CRTH2 receptor was 7.75.

In turn, `CCc1nn(Cc2ccc(C(=O)NCc3ccc(C(F)(F)F)cc3)cc2)c(CC)c1CC(=O)O` [Example 9.20] showed a pKi on human CRTH2 receptor of 7.42.

Turning to `CCc1c(CC(=O)O)c(C2CC2)nn1Cc1ccc(NC(=O)c2cccc3ccccc23)cc1` [Example 2.51], the pKi on human CRTH2 receptor was 8.46.

`CCc1nn(Cc2ccc(C(=O)Nc3ccc4ccccc4n3)cc2)c(CC)c1CC(=O)O` [Example 9.23]: the negative logarithm of the Ki (pKi) at human CRTH2 receptor is 8.40.

Turning to `Cc1nn(Cc2ccc(NC(=O)c3ccc(C(F)(F)F)cc3)cc2Cl)c(C)c1CC(=O)O` [Example 7.8], the pKi at human CRTH2 receptor was 9.10. This pKi is 0.70 log units higher than that of the molecule before.

Molecule `Cc1nn(Cc2ccc(NC(=O)CCc3ccccc3)cc2Cl)c(C)c1CC(=O)O` [Example 7.9] had a negative-log Ki (pKi) on human CRTH2 receptor of 8.60.

In the case of `Cc1nn(Cc2ccc(NC(=O)c3ccc(C(F)(F)F)cc3)cc2F)c(C)c1CC(=O)O` [Example 7.17], the negative-log Ki (pKi) at human CRTH2 receptor is 8.96.

For `Cc1nn(Cc2ccc(C(=O)Nc3cccc(F)c3)cc2)c(C)c1CC(=O)O` [Example 9.1], the pKi at human CRTH2 receptor was 5.83.

For `CCc1nn(Cc2ccc(NC(=O)OCc3ccccc3Cl)cc2)c(CC)c1CC(=O)O` [Example 3.10], the pKi on human CRTH2 receptor is 8.28. Against the preceding molecule, the pKi is 2.45 log units higher.

As for `Cc1nn(Cc2ccc(C(C)Oc3ccc(C(F)(F)F)cc3)cc2)c(C)c1CC(=O)O` (stereo not shown) [Example 14.5], the pKi at human CRTH2 receptor was 6.60.

`Cc1nn(Cc2ccc(NS(=O)(=O)c3ccc(Cl)cc3)cc2)c(C)c1CC(=O)O` [Example 5.2] gave a negative-log Ki (pKi) at human CRTH2 receptor of 7.47. This pKi lies 0.87 log units higher than the previous one.

Regarding `CCc1nn(Cc2ccc(NC(=O)c3ccc(C(F)(F)F)cc3)cc2)c(C2CC2)c1CC(=O)O` [Example 2.50], at human CRTH2 receptor, the pKi is 10.00.

Regarding `CCc1nn(Cc2ccc(NC(=O)c3ccc(C(F)(F)F)cc3)cc2)c(CC)c1CC(=O)O` [Example 2.1], the negative logarithm of the Ki (pKi) on human CRTH2 receptor is 9.70. Against the preceding molecule, the pKi is 0.30 log units lower.

`Cc1ccc(C(=O)Nc2ccc(Cn3nc(C)c(CC(=O)O)c3C)cc2)c(F)c1` [Example 1.20]: the pKi on human CRTH2 receptor was 7.53.

Molecule `CC(C)(C)c1nn(Cc2ccc(C(=O)Nc3ccc(F)c(Cl)c3)cc2)c(C(C)(C)C)c1CC(=O)O` [Example 9.15] showed a negative logarithm of the Ki (pKi) on human CRTH2 receptor of 7.49.

With `CCc1nn(Cc2ccc(OCc3ccc(OC)c(C(F)(F)F)c3)cc2)c(CC)c1CC(=O)O` [Example 13.12], the pKi at human CRTH2 receptor is 8.30.

At human CRTH2 receptor, `Cc1nn(Cc2ccc([S+]([O-])Cc3ccc4ccccc4c3)cc2)c(C)c1CC(=O)O` (stereo not shown) [Example 19.1] gave a negative-log Ki (pKi) of 7.36.

Take `CCc1nn(Cc2ccc(C(=O)Nc3ccc(Br)c(F)c3)cc2)c(CC)c1CC(=O)O` [Example 9.16]: the pKi at human CRTH2 receptor is 8.17.

At human CRTH2 receptor, `CCc1nn(Cc2ccc(NC(=O)c3ccc(Cl)cc3Br)cc2)c(CC)c1CC(=O)O` [Example 2.24] showed a negative-log Ki (pKi) of 8.55.

As to `Cc1nn(Cc2ccc(NC(=O)c3ccccc3)cc2)c(C)c1CC(=O)O` [Example 1.3], at human CRTH2 receptor, the pKi was 7.51.

Turning to `CCc1nn(Cc2ccc(NC(=O)c3ccc4ccccc4c3)cc2)c(CC)c1CC(=O)O` [Example 2.14], on human CRTH2 receptor, the negative-log Ki (pKi) is 9.70.

In turn, `CCc1nn(Cc2ccc(C(=O)NCc3cc4ccccc4o3)cc2F)c(CC)c1CC(=O)O` [Example 9.28] gave a negative-log Ki (pKi) on human CRTH2 receptor of 7.98.

`Cc1nn(Cc2ccc(C(=O)Nc3ccc(F)c(Cl)c3)cc2)c(C)c1CC(=O)O` [Example 9.4] gave a pKi at human CRTH2 receptor of 7.73.

In the case of `Cc1nn(Cc2ccc(OCc3ccccc3)cc2)c(C)c1CC(=O)O` [Example 13.4], the pKi at human CRTH2 receptor was 6.49.

In turn, `Cc1nn(Cc2ccc(COc3ccc(C(F)(F)F)cc3)cc2)c(C)c1CC(=O)O` [Example 14.1] showed a pKi at human CRTH2 receptor of 5.81.

On human CRTH2 receptor, `CCc1nn(Cc2ccc(NC(=O)OCc3ccccc3)cc2)c(CC)c1CC(=O)O` [Example 3.3] showed a pKi of 9.52.

For the molecule `Cc1nn(Cc2ccc(NC(=O)NCc3ccccc3)cc2)c(C)c1CC(=O)O` [Example 4.1], the pKi on human CRTH2 receptor was 7.77. This pKi lies 1.75 log units lower than the previous one.

Regarding `COc1ccc(CCNS(=O)(=O)c2ccc(Cn3nc(C)c(CC(=O)O)c3C)cc2)cc1OC` [Example 10.2], the pKi at human CRTH2 receptor was 6.13. This pKi is 1.64 log units lower than that of the molecule before.

Regarding `Cc1nn(Cc2ccc(NC(=O)C3CCC3)cc2)c(C)c1CC(=O)O` [Example 1.35], the negative logarithm of the Ki (pKi) on human CRTH2 receptor was 7.35.

For `Cc1nn(Cc2ccc(CS(=O)(=O)c3ccc(C(F)(F)F)cc3)cc2)c(C)c1CC(=O)O` [Example 16.3], the pKi at human CRTH2 receptor is 5.64.

On to `CCc1nn(Cc2ccc(C(=O)NC3CCC4CCCCC4C3)cc2)c(CC)c1CC(=O)O` (stereo not shown) [Example 9.25], for which the pKi at human CRTH2 receptor was 7.49. Compared with the last molecule, the pKi is 1.85 log units higher.

On human CRTH2 receptor, `CCc1nn(Cc2ccc(S(=O)(=O)Nc3ccc(Cl)c(F)c3)cc2)c(CC)c1CC(=O)O` [Example 10.5] gave a negative logarithm of the Ki (pKi) of 7.56.

On human CRTH2 receptor, `Cc1nn(Cc2ccc(NC(=O)c3ccc(Cl)c(Cl)c3)cc2)c(C)c1CC(=O)O` [Example 1.8] gave a negative logarithm of the Ki (pKi) of 8.59.

The molecule `Cc1nn(Cc2ccc(NC(=O)OCc3ccccc3)cc2Cl)c(C)c1CC(=O)O` [Example 3.13] gave a pKi at human CRTH2 receptor of 8.33. Against the preceding molecule, the pKi is 0.26 log units lower.

For `CCCCC[C@H](O)/C=C/[C@H]1C(=O)C[C@H](O)[C@@H]1C/C=C\CCCC(=O)O` [PGD2, prostaglandin D2], the hair growth result (in assay [1]; with hair growth in mice) was “inhibited hair growth” each time.

`CCc1nn(Cc2ccc(NC(=O)C(C)(C)C)cc2)c(CC)c1CC(=O)O` [Example 2.30] had a pKi at human CRTH2 receptor of 8.24.

On human CRTH2 receptor, `Cc1nn(Cc2ccc(NC(=O)c3ccc(Br)cc3Cl)cc2)c(C)c1CC(=O)O` [Example 1.27] had a negative logarithm of the Ki (pKi) of 8.03.

With `Cc1nn(Cc2ccc(/C=C/c3ccc(C(F)(F)F)cc3)cc2)c(C)c1CC(O)O` [Example 12.2], the pKi on human CRTH2 receptor was 7.25.

At human CRTH2 receptor, `Cc1cc(Cn2nc(C)c(CC(=O)O)c2C)ccc1NC(=O)c1ccccc1` [Example 7.1] showed a pKi of 6.39.

In the case of `CCc1nn(Cc2ccc(C(=O)NC3CCC(C(C)(C)C)CC3)cc2)c(CC)c1CC(=O)O` (stereo not shown) [Example 9.26], the negative-log Ki (pKi) on human CRTH2 receptor was 7.40.

At human CRTH2 receptor, `CCc1nn(Cc2ccc([S+]([O-])Cc3ccccc3)cc2)c(CC)c1CC(=O)O` (stereo not shown) [Example 19.4] showed a pKi of 7.31.

With `Cc1nn(Cc2ccc(OCc3ccc(C(F)(F)F)cc3)cc2)c(C)c1CC(=O)O` [Example 13.2], the pKi at human CRTH2 receptor is 5.97. Against the preceding molecule, the pKi is 1.34 log units lower.

`Cc1nn(Cc2ccc(NC(=O)OCc3ccc4ccccc4c3)cc2)c(C)c1CC(=O)O` [Example 3.7] had a pKi at human CRTH2 receptor of 9.22.

Regarding `Cc1nn(Cc2ccc(C(=O)Cc3ccccc3)cc2)c(C)c1CC(=O)O` [Example 15.2], the pKi on human CRTH2 receptor was 6.26.

In turn, `CCc1nn(Cc2ccc(C(=O)N[C@@H]3CCC[C@H](c4ccccc4)C3)cc2)c(CC)c1CC(=O)O` [Example 9.22] had a pKi at human CRTH2 receptor of 7.81.

`CCc1nn(Cc2ccc(NC(=O)c3ccc(Br)cc3C)cc2)c(CC)c1CC(=O)O` [Example 2.17] gave a pKi at human CRTH2 receptor of 9.15.

Take `CCc1nn(Cc2ccc(NC(=O)c3ccc(C(F)(F)F)cc3)cc2)c(C)c1CC(=O)O` [Example 2.53]: the pKi on human CRTH2 receptor was 9.70.

With `COc1ccc(COc2ccc(Cn3nc(C)c(CC(=O)O)c3C)cc2)cc1C(F)(F)F` [Example 13.6], at human CRTH2 receptor, the pKi is 7.54.

As a reminder, the pKi is −log10 of the Ki, conventionally taken in molar units.
